In patent US10759783B2, “Biaryl inhibitors of Bruton'S tyrosine kinase” (BIOGEN MA INC., priority 2013, dated 2020):

Key:
[1] = biological target: BTK (phospho-BTK) in human whole blood (Homo sapiens, UniProt Q06187); experiment: In vitro PD assay in human whole blood (pBTK assay)
BTK enzyme = biological target: T1, BTK enzyme (Homo sapiens, UniProt Q06187); experiment: In vitro BTK kinase assay: BTK-POLYGAT-LS assay; assay type: biochemical; settings: ATP 10 μM, read-out: IC50 (10uMATP)
T1 construct: purchased Upstate 14-552
T1 sequence (Q06187 whole entry): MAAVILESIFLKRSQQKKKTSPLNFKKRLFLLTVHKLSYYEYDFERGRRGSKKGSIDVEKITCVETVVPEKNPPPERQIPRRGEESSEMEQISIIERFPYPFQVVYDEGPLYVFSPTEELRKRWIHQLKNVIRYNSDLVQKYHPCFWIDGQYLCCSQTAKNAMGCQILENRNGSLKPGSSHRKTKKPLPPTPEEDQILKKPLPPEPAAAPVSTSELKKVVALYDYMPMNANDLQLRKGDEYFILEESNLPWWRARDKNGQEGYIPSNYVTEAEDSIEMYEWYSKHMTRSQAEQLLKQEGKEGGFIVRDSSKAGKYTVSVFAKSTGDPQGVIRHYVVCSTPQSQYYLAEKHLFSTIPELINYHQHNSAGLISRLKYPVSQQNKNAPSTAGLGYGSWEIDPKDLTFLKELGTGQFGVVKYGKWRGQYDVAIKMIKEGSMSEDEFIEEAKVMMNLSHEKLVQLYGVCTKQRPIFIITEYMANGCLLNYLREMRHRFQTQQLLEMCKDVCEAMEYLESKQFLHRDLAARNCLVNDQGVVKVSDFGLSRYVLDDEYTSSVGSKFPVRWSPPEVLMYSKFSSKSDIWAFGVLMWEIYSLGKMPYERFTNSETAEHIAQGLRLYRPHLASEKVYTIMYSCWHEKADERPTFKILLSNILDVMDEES
Method in brief: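 Human BTK activity was measured with final 10 μM ATP and 100 nM polyGAT substrate in pH 7.5 Tris buffer with 10 mM MgCl2, DTT, Triton X-100 and casein.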

Sequence of BTK (phospho-BTK) in human whole blood (Q06187 whole entry): as above

Row | IC50 [1] [nM] | IC50 (BTK enzyme) [nM] | SMILES
1 | < 500 | < 10 | Cc1cc(-c2cc(Nc3ccc4c(n3)CCNC4)ncn2)ccc1CNC(=O)c1cnc(C(C)(C)C)s1 [Example I-266, 2-tert-butyl-N-[[2-methyl-4-[6-(5,6,7,8-tetrahydro-1,6-naphthyridin-2-ylamino)pyrimidin-4-yl]phenyl]methyl]thiazole-5-carboxamide]
2 | < 500 | < 10 | Cc1cc(-c2cc(Nc3cc4c(cn3)CNCC4)ncn2)ccc1CNC(=O)c1cnc(C(C)(C)C)s1 [Example I-267, 2-tert-butyl-N-[[2-methyl-4-[6-(5,6,7,8-tetrahydro-2,7-naphthyridin-3-ylamino)pyrimidin-4-yl]phenyl]methyl]thiazole-5-carboxamide]
3 | < 500 | < 10 | Cc1cc(-c2cc(Nc3cc4c(cn3)CN(CCO)CC4)ncn2)ccc1CNC(=O)c1cnc(C(C)(C)C)s1 [Example I-268, 2-tert-butyl-N-[[4-[6-[[7-(2-hydroxyethyl)-6,8-dihydro-5H-2,7-naphthyridin-3-yl]amino]pyrimidin-4-yl]-2-methyl-phenyl]methyl]thiazole-5-carboxamide]
4 | < 500 | < 10 | Cc1cc(-c2cc(Nc3cc4c(cn3)CN(C)CC4)ncn2)ccc1CNC(=O)c1cnc(C(C)(C)C)s1 [Example I-269, 2-tert-butyl-N-[[2-methyl-4-[6-[(7-methyl-6,8-dihydro-5H-2,7-naphthyridin-3-yl)amino]pyrimidin-4-yl]phenyl]methyl]thiazole-5-carboxamide]
5 | < 500 | < 10 | Cc1cc(-c2cc(Nc3cc4n(n3)CCNC4)ncn2)ccc1CNC(=O)c1cnc(C(C)(C)C)s1 [Example I-270, 2-tert-butyl-N-[[2-methyl-4-[6-(4,5,6,7-tetrahydropyrazolo[1,5-a]pyrazin-2-ylamino)pyrimidin-4-yl]phenyl]methyl]thiazole-5-carboxamide]
6 | < 500 | < 10 | Cc1cc(-c2cc(Nc3cc4n(n3)CCN(CCO)C4)ncn2)ccc1CNC(=O)c1cnc(C(C)(C)C)s1 [Example I-271, 2-tert-butyl-N-[[4-[6-[[5-(2-hydroxyethyl)-6,7-dihydro-4H-pyrazolo[1,5-a]pyrazin-2-yl]amino]pyrimidin-4-yl]-2-methyl-phenyl]methyl]thiazole-5-carboxamide]
7 | < 500 | < 10 | Cc1cc(-c2cc(Nc3cc4n(n3)CCOC4)ncn2)ccc1CNC(=O)c1cnc(C(C)(C)C)s1 [Example I-276, 2-tert-butyl-N-[[4-[6-(6,7-dihydro-4H-pyrazolo[5,1-c][1,4]oxazin-2-ylamino)pyrimidin-4-yl]-2-methyl-phenyl]methyl]thiazole-5-carboxamide]
8 | < 500 | < 10 | Cc1cc(-c2cc(Nc3cc4n(n3)CCN(C)C4=O)ncn2)ccc1CNC(=O)c1cnc(C(C)(C)C)s1 [Example I-278, 2-tert-butyl-N-[[2-methyl-4-[6-[(5-methyl-4-oxo-6,7-dihydropyrazolo[1,5-a]pyrazin-2-yl)amino]pyrimidin-4-yl]phenyl]methyl]thiazole-5-carboxamide]
9 | < 500 | < 10 | Cc1cc(-c2cc(Nc3cc4n(n3)CC(C)N(C)C4)ncn2)ccc1CNC(=O)c1cnc(C(C)(C)C)s1 (centres unmarked) [Example I-279, 2-tert-butyl-N-[[4-[6-[(5,6-dimethyl-6,7-dihydro-4H-pyrazolo[1,5-a]pyrazin-2-yl)amino]pyrimidin-4-yl]-2-methyl-phenyl]methyl]thiazole-5-carboxamide]
10 | < 500 | < 10 | Cc1cc(-c2cc(Nc3cc4n(n3)CCN(C)C4C)ncn2)ccc1CNC(=O)c1cnc(C(C)(C)C)s1 (centres unmarked) [Example I-283, 2-tert-butyl-N-[[4-[6-[(4,5-dimethyl-6,7-dihydro-4H-pyrazolo[1,5-a]pyrazin-2-yl)amino]pyrimidin-4-yl]-2-methyl-phenyl]methyl]thiazole-5-carboxamide]
11 | < 500 | < 10 | Cc1cc(-c2cc(Nc3cc4n(n3)CCCN(CCO)C4)ncn2)ccc1CNC(=O)c1cnc(C(C)(C)C)s1 [Example I-285, 2-tert-butyl-N-[[4-[6-[[5-(2-hydroxyethyl)-4,6,7,8-tetrahydropyrazolo[1,5-a][1,4]diazepin-2-yl]amino]pyrimidin-4-yl]-2-methyl-phenyl]methyl]thiazole-5-carboxamide]
12 | < 500 | < 10 | Cc1cc(-c2cc(Nc3cc4n(n3)CC(=O)N(C)C4)ncn2)ccc1CNC(=O)c1cnc(C(C)(C)C)s1 [Example I-286, 2-tert-butyl-N-[[2-methyl-4-[6-[(5-methyl-6-oxo-4,7-dihydropyrazolo[1,5-a]pyrazin-2-yl)amino]pyrimidin-4-yl]phenyl]methyl]thiazole-5-carboxamide]

The next lines start with the compound.

Row | SMILES | IC50 [1] [nM] | IC50 (BTK enzyme) [nM]
13 | Cc1cc(-c2ccnc(Nc3cnn(C4CC4)c3)n2)ccc1CNC(=O)c1cnn(C(C)(C)C)c1 [Example I-260, 1-tert-butyl-N-[[4-[2-[(1-cyclopropylpyrazol-4-yl)amino]pyrimidin-4-yl]-2-methyl-phenyl]methyl]pyrazole-4-carboxamide] | < 500 | < 10
14 | CCCC1CN(C(=O)NCc2ccc(-c3ccnc(Nc4cnn(C)c4)n3)cc2C)C1 [Example I-263, N-[[2-methyl-4-[2-[(1-methylpyrazol-4-yl)amino]pyrimidin-4-yl]phenyl]methyl]-3-propyl-azetidine-1-carboxamide] | < 500 | < 10
15 | Cc1cc(-c2cc(Nc3cc4n(n3)CCN(C)C4)ncn2)ccc1CNC(=O)c1cc(C(C)(C)C)on1 [Example I-265, 5-tert-butyl-N-[[2-methyl-4-[6-[(5-methyl-6,7-dihydro-4H-pyrazolo[1,5-a]pyrazin-2-yl)amino]pyrimidin-4-yl]phenyl]methyl]isoxazole-3-carboxamide] | < 500 | < 10
16 | Cc1cc(-c2cc(Nc3cc4n(n3)CCNC4)ncn2)ccc1CNC(=O)N1CC(OC(C)C)C1 [Example I-272, 3-isopropoxy-N-[[2-methyl-4-[6-(4,5,6,7-tetrahydropyrazolo[1,5-a]pyrazin-2-ylamino)pyrimidin-4-yl]phenyl]methyl]azetidine-1-carboxamide] | < 500 | < 10
17 | Cc1cc(-c2cc(Nc3cc4n(n3)CCCNC4)ncn2)ccc1CNC(=O)N1CC(OC(C)C)C1 [Example I-273, 3-isopropoxy-N-[[2-methyl-4-[6-(5,6,7,8-tetrahydro-4H-pyrazolo[1,5-a][1,4]diazepin-2-ylamino)pyrimidin-4-yl]phenyl]methyl]azetidine-1-carboxamide] | < 500 | < 10
18 | Cc1cc(-c2cc(Nc3cc4n(n3)CCCN(CCO)C4)ncn2)ccc1CNC(=O)N1CC(OC(C)C)C1 [Example I-274, N-[[4-[6-[[5-(2-hydroxyethyl)-4,6,7,8-tetrahydropyrazolo[1,5-a][1,4]diazepin-2-yl]amino]pyrimidin-4-yl]-2-methyl-phenyl]methyl]-3-isopropoxy-azetidine-1-carboxamide] | < 500 | < 10
19 | Cc1cc(-c2cc(Nc3cc4n(n3)CCN(C)C4)ncn2)ccc1CNC(=O)N1CCC(C(C)(C)C)C1 (centres unmarked) [Example I-275, 3-tert-butyl-N-[[2-methyl-4-[6-[(5-methyl-6,7-dihydro-4H-pyrazolo[1,5-a]pyrazin-2-yl)amino]pyrimidin-4-yl]phenyl]methyl]pyrrolidine-1-carboxamide] | < 500 | < 10
20 | Cc1cc(-c2cc(Nc3cc4n(n3)CCOC4)ncn2)ccc1CNC(=O)N1CC(OC(C)C)C1 [Example I-277, N-[[4-[6-(6,7-dihydro-4H-pyrazolo[5,1-c][1,4]oxazin-2-ylamino)pyrimidin-4-yl]-2-methyl-phenyl]methyl]-3-isopropoxy-azetidine-1-carboxamide] | < 500 | < 10
21 | Cc1cc(-c2cc(Nc3cc4n(n3)CC(C)N(C)C4)ncn2)ccc1CNC(=O)c1cnn(C(C)(C)C)c1 (centres unmarked) [Example I-280, 1-tert-butyl-N-[[4-[6-[(5,6-dimethyl-6,7-dihydro-4H-pyrazolo[1,5-a]pyrazin-2-yl)amino]pyrimidin-4-yl]-2-methyl-phenyl]methyl]pyrazole-4-carboxamide] | < 500 | < 10
22 | Cc1cc(-c2cc(Nc3cc4n(n3)CC(=O)N(C)C4)ncn2)ccc1CNC(=O)N1CCC(C(C)(C)C)C1 (centres unmarked) [Example I-281, 3-tert-butyl-N-[[2-methyl-4-[6-[(5-methyl-6-oxo-4,7-dihydropyrazolo[1,5-a]pyrazin-2-yl)amino]pyrimidin-4-yl]phenyl]methyl]pyrrolidine-1-carboxamide] | < 500 | < 10
23 | Cc1cc(-c2cc(Nc3cc4n(n3)CCN(C)C4C)ncn2)ccc1CNC(=O)c1cnn(C(C)(C)C)c1 (centres unmarked) [Example I-282, 1-tert-butyl-N-[[4-[6-[(4,5-dimethyl-6,7-dihydro-4H-pyrazolo[1,5-a]pyrazin-2-yl)amino]pyrimidin-4-yl]-2-methyl-phenyl]methyl]pyrazole-4-carboxamide] | < 500 | < 10
24 | Cc1cc(-c2cc(Nc3cc4n(n3)CCN(C)C4C)ncn2)ccc1CNC(=O)N1CCC(C(C)(C)C)C1 (centres unmarked) [Example I-284, 3-tert-butyl-N-[[4-[6-[(4,5-dimethyl-6,7-dihydro-4H-pyrazolo[1,5-a]pyrazin-2-yl)amino]pyrimidin-4-yl]-2-methyl-phenyl]methyl]pyrrolidine-1-carboxamide] | < 500 | < 10
25 | Cc1cc(-c2cc(Nc3cc4n(n3)CCOC4)ncn2)ccc1CNC(=O)N1CC(OC(C)(C)C)C1 [Example I-287, 3-tert-butoxy-N-[[4-[6-(6,7-dihydro-4H-pyrazolo[5,1-c][1,4]oxazin-2-ylamino)pyrimidin-4-yl]-2-methyl-phenyl]methyl]azetidine-1-carboxamide] | < 500 | < 10
